In patent EP0419292A1, “Human tryptase-like protein” (TAISHO PHARMACEUTICAL CO. LTD, priority 1989, dated 1991):
Entries after “also recorded” stand apart in the source; their conditions may differ. Starred links: 1 amine or outer side, 2 acyl side, 3 side chain; linkers in the order of their positions; H or OH if unused. Non-standard residues stand in square brackets, D forms with d. Residues, ends and D or L forms follow the SMILES beside them. *: point of attachment. Sta = CC(C)C[C@H](N)[C@@H](O)CC(=O)O; Glutaryl = O=C(CCCC(=O)[*:2])[*:1]; AMC = Cc1cc(=O)oc2cc(N*)ccc12; Suc = O=C(CCC(=O)[*:2])[*:1]; Isovaleryl = CC(C)CC(=O)*; Boc = CC(C)(C)OC(=O)*

Tests used:
[1] = tested on: human tryptase-like protein; test: Effects of inhibitors on the trypsin-like activity; assay type: biochemical; conditions: 10 µM inhibitor; for Inhibition (%) / Activity: substrate Boc-Gln-Gly-Arg-MCA; for Activity: control 843.1
Method: (§1) Enzyme activity of the human tryptase-like protein during the course of purification or after purification was measured as follows. The enzyme sample was added to 0.1 M Tris-HCl buffer (pH 7.8) containing 25 mM calcium chloride and 100 µM of fluorogenic substrate. The fluorescence was measured with excitation and emmision wavelength of 380 nm and 460 nm, respectively.
Effects of inhibitors on the trypsin-like activity of the human tryptase-like protein was examined using Boc-Gln-Gly-Arg-MCA as substrate.

[2] = tested on: human tryptase-like protein; test: Enzyme activity with fluorogenic substrates (substrate specificity); assay type: biochemical; conditions: for Activity: Substrate 100 µM, 0.1 M Tris-HCl pH 7.8, 25 mM calcium chloride; for %: activity relative to Boc-Gln-Gly-Arg-MCA (100), substrate 100 µM; for hydrolysis by human tryptase-like protein: trypsin-like or chymotrypsin-like activity
Method: as §1, with “respectively. Effects of inhibitors on the enzyme activity were examined by adding 10 µM each of inhibitor to the reaction solution described above.” for “respectively.”

Row | Activity [2] [µU/ml] | % [2] [%] | Compound | Inhibition (%) [1] [%] | Activity [1] [µU/ml] | hydrolysis by human tryptase-like protein [2] | inhibition of trypsin-like activity [1]
1 | – | – | CC(C)C[C@@H](N)[C@H](O)C(=O)N[C@H](C(=O)N[C@H](C(=O)N[C@@H](CC(=O)O)C(=O)O)C(C)C)C(C)C [Amastatin] | 9 | 767.2 | – | –
2 | – | – | N=C(N)c1ccccc1 [Benzamidine] | 3 | 817.8 | – | –
3 | – | – | CC(C)C[C@H](NC(=O)[C@@H](O)[C@H](N)Cc1ccccc1)C(=O)O [Bestatin] | 0 | 843.0 | – | –
4 | 199.7 | 26 | Cc1cc(=O)oc2cc(NC(=O)[C@H](CCCNC(=N)N)NC(=O)[C@@H]3CCCN3C(=O)CNC(=O)[C@H](C)NC(=O)OC(C)(C)C)ccc12 [Boc-Ala-Gly-Pro-Arg-MCA] (Boc-AGPR-{AMC}) | – | – | – | –
5 | 532.4 | 71 | Cc1cc(=O)oc2cc(NC(=O)[C@H](CCCNC(=N)N)NC(=O)[C@H](C)NC(=O)[C@H](CCC(N)=O)NC(=O)OC(C)(C)C)ccc12 [Boc-Gln-Ala-Arg-MCA] (Boc-Gln-Ala-Arg-{AMC}) | – | – | – | –
6 | 177.5 | 24 | Cc1cc(=O)oc2cc(NC(=O)[C@H](CCCNC(=N)N)NC(=O)[C@H](CCCNC(=N)N)NC(=O)[C@H](CCC(N)=O)NC(=O)OC(C)(C)C)ccc12 [Boc-Gln-Arg-Arg-MCA] (Boc-Gln-Arg-Arg-{AMC}) | – | – | – | –
7 | 754.4 | 100 | Cc1cc(=O)oc2cc(NC(=O)[C@H](CCCNC(=N)N)NC(=O)CNC(=O)[C@H](CCC(N)=O)NC(=O)OC(C)(C)C)ccc12 [Boc-Gln-Gly-Arg-MCA] (Boc-Gln-Gly-Arg-{AMC}) | – | – | cleaves; also recorded: hydrolyzed most rapidly | –
8 | 221.9 | 29 | Cc1cc(=O)oc2cc(NC(=O)[C@H](CCCCN)NC(=O)[C@H](CCCCN)NC(=O)[C@H](CCC(=O)O)NC(=O)OC(C)(C)C)ccc12 [Boc-Glu-Lys-Lys-MCA] (Boc-Glu-Lys-Lys-{AMC}) | – | – | – | –
9 | 44.4 | 6 | Cc1cc(=O)oc2cc(NC(=O)[C@H](CCCNC(=N)N)NC(=O)[C@H](CCCNC(=N)N)NC(=O)CNC(=O)OC(C)(C)C)ccc12 [Boc-Gly-Arg-Arg-MCA] | – | – | – | –
10 | 177.5 | 24 | Cc1cc(=O)oc2cc(NC(=O)[C@H](CCCNC(=N)N)NC(=O)[C@H](CCCCN)NC(=O)CNC(=O)OC(C)(C)C)ccc12 [Boc-Gly-Lys-Arg-MCA] (Boc-Gly-Lys-Arg-{AMC}) | – | – | – | –
11 | 355.0 | 47 | CC[C@H](C)[C@H](NC(=O)OC(C)(C)C)C(=O)N[C@@H](CCC(=O)O)C(=O)NCC(=O)N[C@@H](CCCNC(=N)N)C(=O)Nc1ccc2c(C)cc(=O)oc2c1 [Boc-Ile-Glu-Gly-Arg-MCA] (Boc-IEGR-{AMC}) | – | – | – | –
12 | 110.9 | 15 | Cc1cc(=O)oc2cc(NC(=O)[C@H](CCCNC(=N)N)NC(=O)[C@H](CCCNC(=N)N)NC(=O)[C@H](CC(C)C)NC(=O)OC(C)(C)C)ccc12 [Boc-Leu-Arg-Arg-MCA] (Boc-Leu-Arg-Arg-{AMC}) | – | – | – | –
13 | 110.9 | 15 | Cc1cc(=O)oc2cc(NC(=O)[C@H](CCCNC(=N)N)NC(=O)[C@@H](NC(=O)[C@H](CC(C)C)NC(=O)OC(C)(C)C)[C@@H](C)O)ccc12 [Boc-Leu-Thr-Arg-MCA] (Boc-Leu-Thr-Arg-{AMC}) | – | – | – | –
14 | 177.5 | 24 | Cc1cc(=O)oc2cc(NC(=O)[C@H](CCCNC(=N)N)NC(=O)[C@H](CO)NC(=O)[C@H](Cc3ccccc3)NC(=O)OC(C)(C)C)ccc12 [Boc-Phe-Ser-Arg-MCA] (Boc-Phe-Ser-Arg-{AMC}) | – | – | – | –
15 | 66.6 | 9 | Cc1cc(=O)oc2cc(NC(=O)[C@H](CCCNC(=N)N)NC(=O)[C@@H]3CCCN3C(=O)[C@@H](NC(=O)OC(C)(C)C)C(C)C)ccc12 [Boc-Val-Pro-Arg-MCA] (Boc-Val-Pro-Arg-{AMC}) | – | – | – | –
16 | – | – | CC(C)C[C@H](NC(=O)[C@@H](NC(=O)N[C@@H](Cc1ccccc1)C(=O)O)[C@@H]1CCN=C(N)N1)C(=O)N[C@H](C=O)Cc1ccccc1 [Chymostatin] | 47 | 443.8 | – | inhibited
17 | – | – | CC(C)CCNC(=O)[C@H](CC(C)C)NC(=O)[C@H]1O[C@@H]1C(=O)O [E-64c] | 11 | 754.4 | – | –
18 | – | – | CC(C)C[C@H](NC(=O)N[C@H](C(=O)N[C@@H](CCC(N)=O)C(=O)N[C@@H](C)C=O)[C@@H]1CCNC(=N)N1)C(=O)O [Elastatinal] | 16 | 710.0 | – | –
19 | 332.8 | 44 | Cc1cc(=O)oc2cc(NC(=O)[C@H](CCCNC(=N)N)NC(=O)CNC(=O)CCCC(=O)O)ccc12 [Glt-Gly-Arg-MCA] (Glutaryl-Gly-Arg-{AMC}) | – | – | – | –
20 | – | – | CC(=O)N[C@@H](CC(C)C)C(=O)N[C@@H](CC(C)C)C(=O)N[C@H](C=O)CCCNC(=N)N [Leupeptin] | 87 | 110.9 | – | inhibited; also recorded: strongly inhibited
21 | – | – | O=S(=O)(F)Cc1ccccc1 [PMSF, phenylmethylsulfonyl fluoride] | 13 | 732.2 | – | –
22 | – | – | CC(C)CC(=O)N[C@H](C(=O)N[C@H](C(=O)N[C@@H](CC(C)C)[C@@H](O)CC(=O)N[C@@H](C)C(=O)N[C@@H](CC(C)C)[C@@H](O)CC(=O)O)C(C)C)C(C)C [Pepstatin] (Isovaleryl-VV[Sta]A[Sta]-OH) | 0 | 845.0 | – | –
23 | – | – | CC(C)C[C@H](NP(=O)(O)O[C@@H]1O[C@@H](C)[C@H](O)[C@@H](O)[C@H]1O)C(=O)N[C@@H](Cc1c[nH]c2ccccc12)C(=O)O [Phosphoramidone] | 3 | 820.9 | – | –
24 | 155.3 | 21 | Cc1cc(=O)oc2cc(NC(=O)[C@H](CCCNC(=N)N)NC(=O)[C@H](Cc3ccccc3)NC(=O)[C@@H]3CCCN3)ccc12 [Pro-Phe-Arg-MCA] (H-Pro-Phe-Arg-{AMC}) | – | – | – | –
25 | 110.9 | 15 | Cc1cc(=O)oc2cc(NC(=O)[C@H](Cc3ccccc3)NC(=O)[C@@H]3CCCN3C(=O)[C@H](C)NC(=O)[C@H](C)NC(=O)CCC(=O)O)ccc12 [Suc-Ala-Ala-Pro-Phe-MCA] (Suc-AAPF-{AMC}) | – | – | – | –
26 | 244.1 | 32 | Cc1cc(=O)oc2cc(NC(=O)[C@H](Cc3ccc(O)cc3)NC(=O)[C@@H](NC(=O)[C@H](CC(C)C)NC(=O)[C@H](CC(C)C)NC(=O)CCC(=O)O)C(C)C)ccc12 [Suc-Leu-Leu-Val-Tyr-MCA] (Suc-LLVY-{AMC}) | – | – | cleaves; also recorded: hydrolized most rapidly | –
27 | – | – | Cc1ccc(S(=O)(=O)N[C@@H](CCCCN)C(=O)CCl)cc1 [TLCK, Nα-p-tosyl-L-lysine chloromethyl ketone] | 18 | 691.3 | – | –
28 | – | – | N-tosyl-L-phenylalanine chloromethyl ketone [TPCK] | 16 | 708.2 | – | –
